Data as given in ChEMBL document CHEMBL1128356, “Antineoplastic agents. 291. Isolation and synthesis of combretastatins A-4, A-5, and A-6(1a)” (1995).

What was measured:
[1] = system: Panel (Carcinoma cell lines); experiment: In vitro antitumor activity against human tumor cancer cell lines; assay type: functional
[2] = system: NCI 60 human tumor cell line panel (Homo sapiens); experiment: In vitro inhibitory activity against NCI 60 human tumor cell line panel

Compound	GI50 [1]	GI50 [2]
COc1ccc(/C=C\c2cc(OC)c3c(c2)OCO3)cc1O [Combretastatin A-2]	31.6 nM	
COc1ccc(/C=C\c2cc(OC)c(OC)c(OC)c2)c(O)c1O [COMBRETASTATIN A-1]	16.2 nM	
COc1ccc(/C=C\c2cc(O)c(OC)c(OC)c2)cc1OC		1650 nM
COc1ccc(/C=C/c2cc(O)c(OC)c(OC)c2)cc1OC		> 100000 nM
COc1ccc(/C=C\c2cc(OC)c(OC)c(OC)c2)cc1O [COMBRETASTATIN A4]		3.2 nM
